Calls of active or inactive are those of the source. No cut-off for these calls is given here.
Key:
Assay type in all cases: nucleic-acid assay
Nucleic Acid [1] = assay: Binding affinity to Schizosaccharomyces pombe Non-thiolated Met-tRNA using 32P-labelled probe by PAGE analysis
Nucleic Acid [2] = assay: Binding affinity to ctu1-deficient Schizosaccharomyces pombe Lys-tRNA using 32P-labelled probe by PAGE analysis
Nucleic Acid [3] = assay: Binding affinity to Schizosaccharomyces pombe Thiolated Lys-tRNA using 32P-labelled probe by PAGE analysis

With “[p-(N-acrylamino)-phenyl]mercuric chloride” the Activity (Nucleic Acid [1]) was “inactive”, the Activity (Nucleic Acid [2]) was “inactive” and the Activity (Nucleic Acid [3]) was “Active”.
